How the values were obtained:
[1] = system: cells synthesizing GABA among the cells expressing Pax6-GFP; assay: Immunofluorescence staining: ratio of cells synthesizing GABA among cells expressing Pax6-GFP; assay type: cell-based; conditions: Pax6-GFP transgenic mouse neuronal precursor cells; aucubin 0.01-10 μM vs untreated; FIG. 4C
From the text: (§1) In order to culture neurons, cells were obtained from the brain of an E16 rat embryo according to a method known in the art (Lim et al., 2007; Jo et al., 2007). Specifically, hippocampal eminence was isolated from the forebrain of the E16 rat embryo, and cells were mechanically isolated from the thus-obtained hippocampal eminence tissue by using Ca^2+/Mg^2+-free HBSS(Hanks' Balanced Salt Solution, Invitrogen). PAX6-GFP expressing neuronal precursor cells (NPCs) were isolated from the sub ventricular zone of a PAX6-GFP transgenic mouse.
(§2) The culture of cells was supplemented with 10 ng/mL or 20 ng/mL of bFGF (basic fibroblast growth factor, Invitrogen), and culturing was performed for 3 days in a serum-free N2 medium. After the confluency of cells reaches 70% to 80% by culturing for 3 to 4 days, the cells were subjected to passaging, and then divided and seeded according to an experimental use. Subsequently, the cells were cultured for 7 days in a N2 medium where FGF is removed, allowing neurons to be sufficiently differentiated. The cells were treated with aucubin (Sigma) at varying concentrations (0 μM, 0.01 μM, 0.1 μM, 1 μM, or 10 μM) in a bFGF-free N2 medium. […]
(§3) For GFP-fluorescence staining, an anti-GFP (rabbit anti-GFP antibody, 1:500, Merck, Germany) primary antibody was used. […]

[2] = system: GABAergic neurons expressing a GAD65/67 marker; assay: Immunofluorescence staining: survival rate of GABAergic neurons in ChAT-GFP transgenic mouse culture; assay type: cell-based; conditions: ChAT-GFP transgenic mouse cells; aucubin 0.01-10 μM vs untreated; relative to total DAPI-stained cells; FIG. 2b
Method: as §2, §3
(§4) Thereafter, the number of the stained cells was counted, and compared with the number of the cells expressing a GABAergic neuron-specific marker (GAD65/67), and the survival rates thereof were shown in a graph.
(§5) Specifically, the cells cultured by the method according to Experimental Example 1 were treated with aucubin at varying concentrations of 0 μM, 0.01 μM, 0.1 μM, 1 μM, and 10 μM, respectively. The number of GABAergic neurons expressing a GAD65/67 marker and the number of cholinergic neuron expressing a ChAT-GFP marker were shown in graphs as survival rates relative to the total number of cells which were fluorescence stained with DAPI.

vGluT1 = assay: Immunoblot analysis: expression of vGluT1 (glutamatergic neuron-specific marker); assay type: cell-based, rat; conditions: relative to β-actin, aucubin 0.01-10 μM vs untreated, remarkably lower than GAD65/67, FIG. 3A, D
From the text: (§6) In order to culture neurons, cells were obtained from the brain of an E16 rat embryo according to a method known in the art (Lim et al., 2007; Jo et al., 2007). Specifically, hippocampal eminence was isolated from the forebrain of the E16 rat embryo, and cells were mechanically isolated from the thus-obtained hippocampal eminence tissue by using Ca^2+/Mg^2+-free HBSS(Hanks' Balanced Salt Solution, Invitrogen). PAX6-GFP expressing neuronal precursor cells (NPCs) were isolated from the sub ventricular zone of a PAX6-GFP transgenic mouse. […]
(§7) Specifically, cells (30,000 cells/cm^2), which were cultured in a 60 mm petri dish coated with 15 μg/mL of poly-L-ornithine (Sigma-Aldrich, USA) and 1 μg/mL of fibronectin (Sigma-Aldrich, USA), were used. […] The protein quantification was performed using a Bradford protein assay kit (Bio-Rad, Hercules, Calif., USA).
(§8) Subsequently, a mixture of 20 μg of the proteins and a loading buffer (Biosesang Co., Seoul, Korea) was boiled at 100° C. for 10 minutes to denature the proteins. […] Thereafter, signals were detected after culturing the proteins with a secondary antibody.
(§9) In order to verify the effect of aucubin on enhancing the survival rates of GABAergic and glutamatergic neurons, the cells were treated with aucubin, followed by quantifying the expression levels of each cell type marker by an immunoblot method. […]

NeuN = assay: Immunoblot analysis: expression of NeuN (mature neuron-specific marker); assay type: cell-based, rat; conditions: relative to β-actin, aucubin 0.01-10 μM vs untreated, FIG. 3A, B
From the text: as §6, §7, §8, §9

[3] = system: cholinergic neurons expressing a ChAT-GFP marker; assay: Immunofluorescence staining: survival rate of cholinergic neurons expressing a ChAT-GFP marker; assay type: cell-based; conditions: ChAT-GFP transgenic mouse cells; aucubin 0.01-10 μM vs untreated; relative to total DAPI-stained cells; FIG. 2b
Method: as §2, §3, §4, §5

GAD65/67 = assay: Immunoblot analysis: expression of GAD65/67 (GABAergic neuron-specific marker); assay type: cell-based, rat; conditions: relative to β-actin, aucubin 0.01-10 μM vs untreated, FIG. 3A, C
From the text: as §6, §7, §8, §9

[4] = system: neuronal precursor cells expressing Pax6-GFP; assay: Immunofluorescence staining: number of neuronal precursor cells expressing Pax6-GFP; assay type: cell-based; conditions: Pax6-GFP transgenic mouse neuronal precursor cells; aucubin 0.01-10 μM vs untreated; FIG. 4A, B
From the text: as §1, §2, §3

[5] = system: glutamatergic neurons expressing a vGluT1 marker; assay: Immunofluorescence staining: survival rate of glutamatergic neurons expressing a vGluT1 marker; assay type: cell-based, rat; conditions: aucubin 0.01-10 μM vs cells not treated with aucubin; increase remarkably lower than for GABAergic neurons; FIG. 1B
From the text: as §1, §2
(§10) Thereafter, the number of the stained cells was counted and the survival rates thereof were shown in a graph. […]

[6] = system: GABAergic neurons expressing a GAD65/67 marker; assay: Immunofluorescence staining: survival rate of GABAergic neurons expressing a GAD65/67 marker; assay type: cell-based, rat; conditions: aucubin 0.01-10 μM vs cells not treated with aucubin; survival rate relative to total number of cells; FIG. 1A
From the text: as §1, §2, §10

OCC1=C[C@@H](O)[C@@H]2C=CO[C@@H](O[C@@H]3O[C@H](CO)[C@@H](O)[C@H](O)[C@H]3O)[C@H]12 [aucubin]
increase in ratio of cells synthesizing GABA among the cells expressing Pax6-GFP [1]: ≥ 1.5 fold
increase in survival rate of GABAergic neurons expressing a GAD65/67 marker [2]: ~2 fold
expression of vGluT1 (glutamatergic neuron-specific marker) (vGluT1): significantly increased
expression of NeuN (mature neuron-specific marker) (NeuN): remarkably increased
survival rate of cholinergic cells expressing a ChAT-GFP marker [3]: the increase rate thereof was not significant
increase in expression of GAD65/67 (GABAergic neuron-specific marker) (GAD65/67): up to 5 fold
increase in number of cells which express Pax6-GFP [4]: about 2 fold
survival rate of excitatory neurons expressing vGluT1 [5]: significantly increased
increase in survival rate of GABAergic neurons expressing a GAD67/65 marker [6]: up to 2 fold

Source: patent publication US11166970B2, “Composition for preventing or treating neurological disorder comprising aucubin” (University-Industry Cooperation Group of Kyung Hee …, priority 2017, dated 2021)
